Biological target: Bee venom phospholipase A2 (PLA2) (Apis mellifera, UniProt P00630)
Type: biochemical

Bee venom phospholipase A2 (PLA2), sequence (P00630 34-167 limits assumed): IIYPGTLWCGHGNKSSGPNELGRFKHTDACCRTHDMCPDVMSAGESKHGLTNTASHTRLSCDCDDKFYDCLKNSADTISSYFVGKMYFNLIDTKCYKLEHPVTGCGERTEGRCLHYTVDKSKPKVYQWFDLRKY

In the case of `CC(=O)O[C@H]1C[C@@H]2[C@@]3(C)CCCC(C)(C)[C@@H]3CC[C@@]2(C)[C@@H]2CC=C(C=O)[C@H](C=O)[C@@]12C` [schalaradiol, 12-epi-scalaradial], the “inhibition of PLA2 activity (rise in emission at 640 nm of supported liposomes)” value is reported as “partial inhibition”.

Source: patent US20070248950A1, “Supported polydiacetylene 3-D arrays for flourescent or phosphorescent detection” (Analytical Biological Services, Inc., priority 2006, published 2007)
